Assay results from patent US10017506B2, “ATX modulating agents” (BIOGEN MA INC., priority 2012, dated 2018).

biological target: T1, Human ATX protein (Homo sapiens, UniProt Q13822); assay: ATX biochemical FRET assay with FS-3 substrate; details: FRET substrate FS-3 2 μM, ATX 1.0 μg/mL, 30 minutes pre-incubation, 2 hours at room temperature; read-out: IC50
T1 construct: made in house
How it was run: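 Enzyme at 1.0 μg/mL final, pre-incubated with compound (10-point, 3-fold series) for 30 min at RT in Tris pH 7.4 buffer with NaCl, KCl, CaCl2, MgCl2 and 1 mg/mL fatty-acid-free BSA. After FS-3 addition, 2 h at RT protected from light; fluorescence at 485/538 nm.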

| SMILES | IC50 [µM] |
| --- | --- |
| CC(N[C@@H]1C[C@H](C(=O)O)C1(C)C)c1ccc2ccc(O[C@H]3CC[C@@H](C(F)(F)F)CC3)c(C(F)(F)F)c2c1 (stereo partly drawn) [Example 119, (1S,3R)-2,2-dimethyl-3-((1-(8-(trifluoromethyl)-7-((cis-4-(trifluoromethyl)cyclohexyl)oxy)naphthalen-2-yl)ethyl)amino)cyclobutanecarboxylic acid] | ≤ 0.1 |
| O=C(O)[C@H]1CC[C@@H](NCc2ccc3ccc(O[C@H]4CC[C@@H](C(F)(F)F)CC4)c(C(F)(F)F)c3c2)CC1 [Example 124, cis-4-(((8-(trifluoromethyl)-7-((cis-4-(trifluoromethyl)cyclohexyl)oxy)naphthalen-2-yl)methyl)amino)cyclohexanecarboxylic acid] | ≤ 0.25 |
| O=C(O)C[C@H]1CCCN(Cc2ccc3ccc(O[C@H]4CC[C@@H](C(F)(F)F)CC4)c(C(F)(F)F)c3c2)C1 [Example 7, 2-((R)-1-((8-(trifluoromethyl)-7-((cis-4-(trifluoromethyl)cyclohexyl)oxy)naphthalen-2-yl)methyl)piperidin-3-yl)acetic acid] | ≤ 0.1 |
| CC1(C)C(NCc2ccc3ccc(O[C@H]4CC[C@@H](C)CC4)c(C(F)(F)F)c3c2)CC1C(=O)O (stereo partly drawn) [Example 78, 2,2-dimethyl-3-(((7-((cis-4-methylcyclohexyl)oxy)-8-(trifluoromethyl)naphthalen-2-yl)methyl)amino)cyclobutanecarboxylic acid] | ≤ 0.25 |
| CC(C)(C)[C@H]1CC[C@H](Nc2cc3cc(C(=O)N[C@H]4CC[C@H](C(=O)O)CC4)ccc3cn2)CC1 [Example 155, trans-4-(3-((trans-4-(tert-butyl)cyclohexyl)amino)isoquinoline-6-carboxamido)cyclohexanecarboxylic acid] | ≤ 0.1 |
| CC[C@H]1CC[C@@H](Oc2ccc3ccc([C@@H](C)N[C@H]4C[C@H](C(=O)O)C4(C)C)cc3c2C(F)(F)F)CC1 [Example 118c, (1S,3S)-3-(((R)-1-(7-((cis-4-ethylcyclohexyl)oxy)-8-(trifluoromethyl)naphthalen-2-yl)ethyl)amino)-2,2-dimethylcyclobutanecarboxylic acid] | ≤ 0.25 |
| CC1(C)C(NCc2ccc3ccc(O[C@H]4CC[C@@H](C(F)(F)F)CC4)c(C(F)(F)F)c3c2)CC1C(=O)O (stereo partly drawn) [Example 8, 2,2-dimethyl-3-(((8-(trifluoromethyl)-7-((cis-4-(trifluoromethyl)cyclohexyl)oxy)-naphthalen-2-yl)methyl)amino)cyclobutanecarboxylic acid] | ≤ 0.25 |
| CC[C@H]1CC[C@@H](Oc2ccc3ccc(C(C)N[C@H]4CC[C@@H](C(=O)O)CC4)cc3c2C(F)(F)F)CC1 (stereo partly drawn) [Example 134, cis-4-((1-(7-((cis-4-ethylcyclohexyl)oxy)-8-(trifluoromethyl)naphthalen-2-yl)ethyl)amino)cyclohexanecarboxylic acid] | ≤ 0.1 |
| CC(N[C@H]1C[C@@H](C(=O)O)C1(C)C)c1ccc2ccc(O[C@H]3CC[C@@H](C)CC3)c(C(F)(F)F)c2c1 (stereo partly drawn) [Example 113, (1R,3S)-2,2-dimethyl-3-((1-(7-((cis-4-methylcyclohexyl)oxy)-8-(trifluoromethyl)naphthalen-2-yl)ethyl)amino)cyclobutanecarboxylic acid] | ≤ 0.1 |
| O=C(O)C1CCCN(Cc2ccc3ccc(O[C@H]4CC[C@@H](C(F)(F)F)CC4)c(C(F)(F)F)c3c2)CC1 (stereo partly drawn) [Example 123, 1-((8-(trifluoromethyl)-7-((cis-4-(trifluoromethyl)cyclohexyl)oxy)naphthalen-2-yl)methyl)azepane-4-carboxylic acid] | ≤ 0.25 |
| CCC(NC1CC(C(=O)O)C1(C)C)c1ccc2ccc(O[C@H]3CC[C@@H](C)CC3)c(C(F)(F)F)c2c1 (stereo partly drawn) [Example 105, 2,2-dimethyl-3-((1-(7-((cis-4-methylcyclohexyl)oxy)-8-(trifluoromethyl)naphthalen-2-yl)propyl)amino)cyclobutanecarboxylic acid] | ≤ 0.1 |
| CC[C@H]1CC[C@@H](Oc2ccc3ccc(C(C)NC4CCC(C(=O)O)C4)cc3c2C(F)(F)F)CC1 (stereo partly drawn) [Example 131, 3-((1-(7-((cis-4-ethylcyclohexyl)oxy)-8-(trifluoromethyl)naphthalen-2-yl)ethyl)amino)cyclopentanecarboxylic acid] | ≤ 0.1 |
| CC(C)(C)[C@H]1CC[C@H](Nc2cc3cc(C(=O)NC45CCC(C(=O)O)(CC4)CC5)ccc3cn2)CC1 [Example 152, 4-(3-((trans-4-(tert-butyl)cyclohexyl)amino)isoquinoline-6-carboxamido)bicyclo[2.2.2]octane-1-carboxylic acid] | ≤ 0.1 |

same assay, conditions: IC50, FRET substrate FS-3 2 μM, ATX 1.0 μg/mL, 30 minutes pre-incubation, 2 hours at room temperature

| SMILES | IC50 [µM] |
| --- | --- |
| N#Cc1c(O[C@H]2CC[C@@H](C(F)(F)F)CC2)ccc2ccc(CN3C4CCCC3CC(C(=O)O)C4)cc12 (stereo partly drawn) [Example 35, 9-((8-cyano-7-((cis-4-(trifluoromethyl)cyclohexyl)oxy)naphthalen-2-yl)methyl)-9-azabicyclo[3.3.1]nonane-3-carboxylic acid] | ≤ 0.25 |
| CCC(c1ccc2ccc(O[C@H]3CC[C@@H](C)CC3)c(Cl)c2c1)N1C2CCC1CC(C(=O)O)C2 (stereo partly drawn) [Example 95, 8-(1-(8-chloro-7-((cis-4-methylcyclohexyl)oxy)naphthalen-2-yl)propyl)-8-azabicyclo[3.2.1]octane-3-carboxylic acid] | ≤ 0.5 |
| CC(c1ccc2ccc(O[C@H]3CC[C@@H](C)CC3)c(C(F)F)c2c1)N1C2CCC1CC(C(=O)O)C2 (stereo partly drawn) [Example 87, 8-(1-(8-(difluoromethyl)-7-((cis-4-methylcyclohexyl)oxy)naphthalen-2-yl)ethyl)-8-azabicyclo[3.2.1]octane-3-carboxylic acid] | ≤ 0.1 |
| CC[C@H]1CC[C@@H](Oc2ccc3ccc([C@@H](C)N4C5CCC4CC(C(=O)O)C5)cc3c2C(F)(F)F)CC1 (stereo partly drawn) [Example 144b, 8-((R)-1-(7-((cis-4-ethylcyclohexyl)oxy)-8-(trifluoromethyl)naphthalen-2-yl)ethyl)-8-azabicyclo[3.2.1]octane-3-carboxylic acid] | ≤ 0.1 |
| CC[C@H]1CC[C@@H](Oc2ccc3ccc(C(C)N4C5CCC4CC(C(=O)O)C5)cc3c2C#N)CC1 (stereo partly drawn) [Example 73, 8-(1-(8-cyano-7-((cis-4-ethylcyclohexyl)oxy)naphthalen-2-yl)ethyl)-8-azabicyclo[3.2.1]octane-3-carboxylic acid] | ≤ 0.1 |
| C[C@H]1CC[C@@H](Oc2ccc3ccc(CN4C5CCCC4CC(C(=O)O)C5)cc3c2C(F)F)CC1 (stereo partly drawn) [Example 86, 9-((8-(difluoromethyl)-7-((cis-4-methylcyclohexyl)oxy)naphthalen-2-yl)methyl)-9-azabicyclo[3.3.1]nonane-3-carboxylic acid] | ≤ 0.1 |
| CC[C@H]1CC[C@@H](Oc2ccc3ccc(C(C)N4C5CCCC4CC(C(=O)OC)C5)cc3c2C(F)(F)F)CC1 (stereo partly drawn) [Example 132, methyl 9-(1-(7-((cis-4-ethylcyclohexyl)oxy)-8-(trifluoromethyl)naphthalen-2-yl)ethyl)-9-azabicyclo[3.3.1]nonane-3-carboxylate] | ≤ 0.25 |
| C[C@H]1CC[C@@H](Oc2ccc3ccc(C(=O)N4C5CCC4CC(C(=O)O)C5)cc3c2C(F)(F)F)CC1 (relative stereo) [Example 24, 8-[7-(cis-4-methyl-cyclohexyloxy)-8-trifluoromethyl-naphthalene-2-carbonyl]-8-azabicyclo[3.2.1]octane-3-carboxylic acid] | ≤ 0.25 |
| CC[C@H]1CC[C@@H](Oc2ccc3ccc(CN4C5CCC4CC(C(=O)O)C5)cc3c2C(F)(F)F)CC1 (stereo partly drawn) [Example 51, 8-((7-((cis-4-ethylcyclohexyl)oxy)-8-(trifluoromethyl)naphthalen-2-yl)methyl)-8-azabicyclo[3.2.1]octane-3-carboxylic acid] | ≤ 0.1 |
| CC(C)[C@H]1CC[C@@H](Oc2ccc3ccc(CN4C5CCCC4CC(C(=O)O)C5)cc3c2C(F)(F)F)CC1 (stereo partly drawn) [Example 108, 9-((7-((cis-4-isopropylcyclohexyl)oxy)-8-(trifluoromethyl)naphthalen-2-yl)methyl)-9-azabicyclo[3.3.1]nonane-3-carboxylic acid] | ≤ 0.1 |
| C[C@H](c1ccc2ccc(O[C@H]3CC[C@@H](C)CC3)c(C(F)(F)F)c2c1)N1C2CCCC1CC(C(=O)O)C2 (single isomer, unassigned) [Example 5b] | ≤ 0.1 |
| CC[C@H]1CC[C@@H](Oc2ccc3ccc(C(C)N4C5CCC4CC(C(=O)O)C5)cc3c2C(F)F)CC1 (stereo partly drawn) [Example 63, 8-(1-(8-(difluoromethyl)-7-((cis-4-ethylcyclohexyl)oxy)naphthalen-2-yl)ethyl)-8-azabicyclo[3.2.1]octane-3-carboxylic acid] | ≤ 0.1 |
| C[C@H]1CC[C@@H](Oc2ccc3ccc(CN4C5CCC4CC(C(=O)O)C5)cc3c2C(F)(F)F)CC1 (stereo partly drawn) [Example 3, 8-[7-(cis-4-methyl-cyclohexyloxy)-8-trifluoromethyl-naphthalen-2-ylmethyl]-8-aza-bicyclo[3.2.1]octane-3-carboxylic acid] | ≤ 0.1 |
| CC[C@H]1CC[C@@H](Oc2ccc3ccc([C@@H](C)N4C5CCCC4CC(C(=O)O)C5)cc3c2C(F)(F)F)CC1 (stereo partly drawn) [Example 133b, 9-((R)-1-(7-((cis-4-ethylcyclohexyl)oxy)-8-(trifluoromethyl)naphthalen-2-yl)ethyl)-9-azabicyclo[3.3.1]nonane-3-carboxylic acid] | ≤ 0.25 |
| C[C@@H](c1ccc2ccc(O[C@H]3CC[C@@H](C(F)(F)F)CC3)c(C(F)(F)F)c2c1)N1C2CCC1CC(C(=O)O)C2 (stereo partly drawn) [Example 12a, 8-{(S)-1-[7-(cis-4-trifluoromethyl-cyclohexyloxy)-8-trifluoromethyl-naphthalen-2-yl]-ethyl}-8-aza-bicyclo[3.2.1]octane-3-carboxylic acid] | ≤ 0.5 |
| CC[C@H]1CC[C@@H](Oc2ccc3ccc(CN4C5CCCC4CC(C(=O)O)C5)cc3c2Cl)CC1 (relative stereo) [Example 49, 9-((8-chloro-7-((cis-4-ethylcyclohexyl)oxy)naphthalen-2-yl)methyl)-9-azabicyclo[3.3.1]nonane-3-carboxylic acid] | ≤ 0.1 |
